Measured values published in US20230217926A1, “SELECTIVE HERBICIDES BASED ON SUBSTITUTED ISOXAZOLIN CARBOXAMIDES AND ISOXADIFEN-ETHYL” (BAYER AKTIENGESELLSCHAFT, priority 2020, published 2023).

What was measured:
[1] = system: HORVS Montoya; experiment: Tank-mix post-emergence crop damage, greenhouse, visual assessment; format: in vivo, spring barley; details: 10 DAT; for Reduction [%] / Reduction [Difference]: isoxadifen-ethyl 50 g a.i./ha; for HER effect: no safener
Protocol: (§1) Seeds of crops (spring wheat, TRZAS; spring barley, HORVS; maize, ZEAMA) were placed in sandy loam soil in peat pots, covered with soil and cultivated in a greenhouse under good growth conditions. Two to three weeks after sowing, the test plants were treated at the 1 to 3-leaf stage. The herbicide/safener active compound combinations according to the invention, formulated as wettable powders or emulsion concentrates, and, in parallel tests, the correspondingly formulated individual active compounds were sprayed onto the green parts of the plants in various dosages using an amount of water of 300 l/ha (converted).
(§2) The pots were returned under good growing conditions in a glasshouse and a visual assessment of herbicidal effects was made at intervals from 1 to 3 weeks after herbicide application (DAT=days after treatment). Assessment was on a percentage basis in comparison with untreated control plants (0%=no injury, 100%=complete kill).
(§3) Reduction[Difference]=herbicide damage without safener−herbicide damage with safener Reduction[%]=(Reduction[Difference]*100)/herbicide damage without safener
c) Plant Species, Variety: HORVS Montoya, Safener (SAF): Isoxadifen-Ethyl

[2] = system: TRZAS Triso; experiment: as above; format: in vivo, spring wheat; details: 21 DAT
Protocol: as §1, §2, §3
5d) Plant Species, Variety: TRZAS Triso, Safener (SAF): Isoxadifen-Ethyl

[3] = system: TRZAS Triso; experiment: Safener seed treatment, pre-emergence herbicide, crop damage; format: in vivo, spring wheat; parameters: key to Reduction [Difference]: % crop damage without safener minus % damage with safener; details: HER 15 g a.i./ha pre-emergence; for Reduction [%] / Reduction [Difference]: isoxadifen-ethyl 0.25 g a.i./kg seed; for HER effect + SAF: isoxadifen-ethyl seed treatment 0.25 g a.i./kg seed; for HER effect: no safener
Protocol: (§4) For the safener seed treatment, sufficient seeds of the respective crops (spring wheat, TRZAS; spring barley, HORVS; maize, ZEAMA) were weighed into screw top glass bottles approximately twice the volume of the seeds.
(§5) The specified safeners, formulated as wettable powder (WP) were weighed out so that the specified rates (g a.i./kg seed) would be obtained, dissolved in water (1 ml water per 10 g of seeds), and added to the seeds to produce a slurry.
(§6) The bottles were capped and then placed in an overhead shaker (set at medium speed for ca. 60 minutes) so that the seeds were evenly coated with the slurry. The bottles were uncapped and the seeds were either placed on paper and dried for an interval of 3-4 hours prior to sowing, or directly sown. Seeds were placed in sandy loam soil in pots of a diameter of 7-8 cm, and covered with soil.
(§7) Pre-emergence application of the specified herbicides was done subsequently, on two sets of plants: a) seed treatment with safener, as described above
(§8) The herbicides were formulated as WP and was sprayed onto the soil surface as an aqueous suspension at an equivalent water application rate of 300 l/ha.
(§9) After application, the test plants were kept in the greenhouse under good growth conditions. At intervals up to 4 weeks after application (=28 days after treatment; DAT), % crop damage observed on the treated plants was scored visually in comparison to control plants that had not received any safener or herbicide treatment.
(§10) Values in the table below are mean values of at least 2 replicates.
Reduction[Difference]=herbicide damage without safener−herbicide damage with safener Reduction[%]=(Reduction[Difference]*100)/herbicide damage without safener a) Plant Species, Variety: TRZAS Triso, Safener (SAF): Isoxadifen-Ethyl

[4] = system: HORVS Montoya; experiment: as above; format: in vivo, spring barley; parameters: key to Reduction [Difference]: % crop damage without safener minus % damage with safener; details: 21 DAT (Final); for Reduction [%] / Reduction [Difference]: isoxadifen-ethyl 0.25 g a.i./kg seed; for HER effect + SAF: isoxadifen-ethyl seed treatment 0.25 g a.i./kg seed; for HER effect: no safener
Protocol: as §4, §5, §6, §7, §8, §9, §10
Reduction[Difference]=herbicide damage without safener−herbicide damage with safener Reduction[%]=(Reduction[Difference]*100)/herbicide damage without safener b) Plant Species, Variety: HORVS Montoya, Safener (SAF): Isoxadifen-Ethyl

[5] = system: ZEAMA Sileno; experiment: as above; format: in vivo, maize; parameters: key to Reduction [Difference]: % crop damage without safener minus % damage with safener; details: for Reduction [%] / Reduction [Difference]: isoxadifen-ethyl 0.25 g a.i./kg seed; for HER effect + SAF: isoxadifen-ethyl seed treatment 0.25 g a.i./kg seed; for HER effect: no safener
Protocol: as §4, §5, §6, §7, §8, §9, §10
Reduction[Difference]=herbicide damage without safener−herbicide damage with safener Reduction[%]=(Reduction[Difference]*100)/herbicide damage without safener […]
c) Plant Species, Variety: ZEAMA Sileno, Safener (SAF): Isoxadifen-Ethyl

[6] = system: ZEAMA Sileno; experiment: Tank-mix post-emergence crop damage, greenhouse, visual assessment; format: in vivo, maize; parameters: key to Reduction [Difference]: % points: herbicide damage without safener − damage with safener; details: for HER effect + SAF / Reduction [%] / Reduction [Difference]: Final; for HER effect: no safener, Final assessment
Protocol: as §1, §2, §3
a) Plant Species, Variety: ZEAMA Sileno, Safener (SAF): Isoxadifen-Ethyl

[7] = system: ZEAMA Abraxas; experiment: as above; format: in vivo, maize; parameters: key to Reduction [Difference]: % injury reduction: damage without minus with safener (0–100% scale)
Protocol: as §1, §2, §3
b) Plant Species, Variety: ZEAMA Abraxas, Safener (SAF): Isoxadifen-Ethyl

[8] = HER 0.5 g a.i./ha + isoxadifen-ethyl 50 g a.i./ha
[9] = HER 0.5 g a.i./ha, isoxadifen-ethyl 50 g a.i./ha
[10] = HER 40 g a.i./ha pre-emergence, 26 DAT
[11] = HER 80 g a.i./ha pre-emergence, 14 DAT
[12] = HER 80 g a.i./ha pre-emergence, 26 DAT
[13] = HER 8 g a.i./ha, isoxadifen-ethyl 50 g a.i./ha
[14] = HER 32 g a.i./ha, isoxadifen-ethyl 100 g a.i./ha
[15] = HER 8 g a.i./ha, isoxadifen-ethyl 50 g a.i./ha, Final

Row | SMILES | Reduction [%] ([3]; 11 DAT (Interim)) | Reduction [Difference] ([3]; 11 DAT (Interim)) | Reduction [%] ([3]; 21 DAT (Final)) | Reduction [Difference] ([3]; 21 DAT (Final)) | HER effect + SAF ([3]; 11 DAT (Interim)) [%] | HER effect + SAF ([3]; 21 DAT (Final)) [%] | HER effect ([3]; 11 DAT (Interim)) [%] | HER effect ([3]; 21 DAT (Final)) [%] | Reduction [%] ([4]; HER 15 g a.i./ha pre-emergence) | Reduction [Difference] ([4]; HER 15 g a.i./ha pre-emergence) | HER effect + SAF ([4]; HER 15 g a.i./ha pre-emergence) [%] | HER effect ([4]; HER 15 g a.i./ha pre-emergence) [%] | Reduction [%] [5, 11] [%] | Reduction [Difference] [5, 11] | Reduction [%] [5, 12] [%] | Reduction [Difference] [5, 12] | HER effect + SAF [5, 11] [%] | HER effect + SAF [5, 12] [%] | HER effect [5, 11] [%] | HER effect [5, 12] [%] | further results
1 | C=CC1(C(=O)NC2C=CC(C(=O)OC)C2)CC(c2cc(F)cc(F)c2)=NO1 (stereo not shown) [Example 1.26] | 31 | 20 | 80 | 60 | 45 | 15 | 65 | 75 | 90 | 45 | 5 | 50 | 36 | 25 | 79 | 55 | 45 | 15 | 70 | 70 | HER effect + SAF [1, 8]: 10%; Reduction [%] ([1]; HER 0.5 g a.i./ha): 75%; Reduction [Difference] ([1]; HER 0.5 g a.i./ha): 30; HER effect ([1]; HER 0.5 g a.i./ha): 40%; HER effect + SAF ([1]; HER 2 g a.i./ha + isoxadifen-ethyl 50 g a.i./ha): 50%; Reduction [%] ([1]; HER 2 g a.i./ha): 29%; Reduction [Difference] ([1]; HER 2 g a.i./ha): 20; HER effect ([1]; HER 2 g a.i./ha): 70%; HER effect + SAF [2, 8]: 10%; Reduction [%] [2, 9]: 75%; Reduction [Difference] [2, 9]: 30; HER effect ([2]; HER 0.5 g a.i./ha, no safener): 40%; Reduction [%] [5, 10]: 90%; Reduction [Difference] [5, 10]: 45; HER effect + SAF [5, 10]: 5%; HER effect [5, 10]: 50%
2 | CC1(C(=O)NC2C=CC(C(=O)O)C2)CC(c2cc(F)cc(F)c2)=NO1 (stereo not shown) [Example 1.36] | 29 | 20 | 64 | 45 | 50 | 25 | 70 | 70 | 43 | 30 | 40 | 70 |  |  |  |  |  |  |  |  | Reduction [%] ([4]; HER 5 g a.i./ha pre-emergence): 44%; Reduction [Difference] ([4]; HER 5 g a.i./ha pre-emergence): 20; HER effect + SAF ([4]; HER 5 g a.i./ha pre-emergence): 25%; HER effect ([4]; HER 5 g a.i./ha pre-emergence): 45%
3 | COCCOC(=O)C1C=CC(NC(=O)C2(C)CC(c3cc(Cl)cc(C#N)c3)=NO2)C1 (stereo not shown) [Example 1.5] | 80 | 20 |  |  | 5 |  | 25 |  |  |  |  |  | 50 | 30 | 56 | 25 | 30 | 20 | 60 | 45 | HER effect + SAF ([6]; HER 8 g a.i./ha + isoxadifen-ethyl 50 g a.i./ha): 18%; Reduction [%] [6, 13]: 79%; Reduction [Difference] [6, 13]: 67; HER effect ([6]; HER 8 g a.i./ha): 85%; HER effect + SAF ([6]; HER 32 g a.i./ha + isoxadifen-ethyl 100 g a.i./ha): 47%; Reduction [%] [6, 14]: 51%; Reduction [Difference] [6, 14]: 49; HER effect ([6]; HER 32 g a.i./ha): 96%
4 | C=CC1(C(=O)NC2COC(C(=O)OCc3ccc(OC)cc3)C2)CC(c2cc(C)cc(F)c2)=NO1 (mixture of isomers) [Example 1.86] |  |  |  |  |  |  |  |  |  |  |  |  |  |  |  |  |  |  |  |  | HER effect + SAF ([7]; HER 8 g a.i./ha + isoxadifen-ethyl 50 g a.i./ha, Final): 12%; Reduction [%] [7, 15]: 63%; Reduction [Difference] [7, 15]: 20; HER effect ([7]; HER 8 g a.i./ha, no safener, Final assessment): 32%
